The test system of the data set is GENE-TOX genotoxicity assays, various organisms and cells. The data set is described as follows: GENE-TOX mutagenicity studies. To be noted: for call: Assay Type: In vivo carcinogenicity studies.
Setting [1] is: Species/Cell Type: Drosophila melanogaster, Assay Type: Sex-linked recessive lethal gene mutation, Assay Code: SRLT, Evaluation Type: Evaluation A (Pre-1980).
[2] abbreviates: Species/Cell Type: Chinese hamster lung (V79) cells, Assay Type: Forward gene mutation at the HPRT or ouabain locus, Assay Code: V79+, Evaluation Type: Evaluation A (Pre-1980).
[3] abbreviates: Species/Cell Type: Escherichia coli polA (W3110 vs P3478), Assay Type: Rec-assay, DNA effects (bacterial DNA repair), Assay Code: RE2+, Evaluation Type: Evaluation A (Pre-1980).
[4] abbreviates: Species/Cell Type: Escherichia coli polA (W3119 vs P3478), Assay Type: Rec-assay, DNA effects (bacterial DNA repair), Assay Code: RE1T, Evaluation Type: Evaluation A (Pre-1980).
The mark [5] stands for this setting: Species/Cell Type: Nonhuman, Assay Code: CCG+, Evaluation Type: Evaluation A (Pre-1980).
Setting [6] is: Species/Cell Type: Saccharomyces cerevisiae, Assay Type: Mitotic recombination or gene conversion, Assay Code: YEH-, Evaluation Type: Evaluation A (Pre-1980).
Where [7] appears, read: Species/Cell Type: Salmonella typhimurium (one or more of the five standard strains: TA98, TA100, TA1535, TA1537, and TA1538), Assay Type: Histidine reverse gene mutation, Ames assay, Assay Code: SAL+*, Activation: With metabolic activation, Evaluation Type: Evaluation A (Pre-1980).
Where [8] appears, read: Species/Cell Type: Salmonella typhimurium (one or more of the five standard strains: TA98, TA100, TA1535, TA1537, and TA1538), Assay Type: Histidine reverse gene mutation, Ames assay, Assay Code: SAL+, Evaluation Type: Evaluation A (Pre-1980).
[9] abbreviates: Species/Cell Type: Human lymphocytes, Assay Type: Sister-chromatid exchange (SCE) in vitro, Assay Code: SCLT, Evaluation Type: Evaluation B (Post-1980).
Where [10] appears, read: Species/Cell Type: Human, Assay Type: Sister-chromatid exchange (SCE) in vitro, Assay Code: SC1T, Evaluation Type: Evaluation B (Post-1980).
The mark [11] stands for this setting: Species/Cell Type: Mammalian polychromatic erythrocytes, Assay Type: Micronucleus test, chromosome aberrations, Assay Code: MNTT, Evaluation Type: Evaluation B (Post-1980).
[12] abbreviates: Species/Cell Type: Salmonella typhimurium (one or more of the five standard strains: TA98, TA100, TA1535, TA1537, and TA1538), Assay Type: Histidine reverse gene mutation, Ames assay, Assay Code: SALT, Evaluation Type: Evaluation A (Pre-1980).
Where [13] appears, read: Species/Cell Type: Human lymphocytes, Assay Type: Sister-chromatid exchange (SCE) in vitro, Assay Code: SCL+D, Dose Response: With dose response, Evaluation Type: Evaluation B (Post-1980).
Setting [14] is: Species/Cell Type: Human, Assay Type: Sister-chromatid exchange (SCE) in vitro, Assay Code: SC1+D, Dose Response: With dose response, Evaluation Type: Evaluation B (Post-1980).
[15] abbreviates: Species/Cell Type: Nonhuman, Assay Type: Sister-chromatid exchange (SCE) in vitro, Assay Code: SC2+D, Dose Response: With dose response, Evaluation Type: Evaluation B (Post-1980).
[16] abbreviates: Species/Cell Type: Human diploid fibroblasts, Assay Type: Unscheduled DNA synthesis (UDS) in vitro, DNA effects, Assay Code: UDH-, Evaluation Type: Evaluation A (Pre-1980).

Structures are written as SMILES. Calls of active or inactive are those of the source. The rule behind the calls is not given here.

`C1=CC2OC2c2cc3ccc4ccccc4c3cc21` (stereo not given): the mutagenic call by setting is: under setting [1], “no conclusion”; (Species/Cell Type: Mouse prostate cells, Assay Type: Cell transformation, Assay Code: CTM+, Evaluation Type: Evaluation A (Pre-1980)) “active; positive”.

Consider `C=CC1CO1` (stereo not given), for which the mutagenic call (Species/Cell Type: Nonhuman, Assay Type: Sister-chromatid exchange (SCE) in vivo, Assay Code: SC3+D, Dose Response: With dose response, Evaluation Type: Evaluation B (Post-1980)) is “active; positive”.

Take `O=[N+]([O-])c1ccc(/C=C/c2cccc(CO)n2)o1`: the mutagenic call (Species/Cell Type: Human diploid fibroblasts, Assay Type: Unscheduled DNA synthesis (UDS) in vitro, DNA effects, Assay Code: UDH+, Evaluation Type: Evaluation A (Pre-1980)) is “active; positive”.

For `Cc1c2ccccc2c(CO)c2ccc3ccccc3c12`, the mutagenic call is “active; positive” under setting [2]; “active; positive” under setting [3]; “no conclusion” under setting [4]; “inactive; negative” under setting [6]; “active; positive” under setting [7]; “inactive; negative” (Species/Cell Type: Salmonella typhimurium, Assay Type: Forward and reverse gene mutation, host-mediated assay, Assay Code: HMA-, Evaluation Type: Evaluation A (Pre-1980)). For the same compound, the call under setting [5] was “active; positive”.

Regarding `Cc1cc(C)c(C)c(OC(=O)N(C)N=O)c1`, under setting [8], the mutagenic call was “active; positive”.

`Oc1c(Oc2ccc(Cl)cc2Cl)cc(Cl)c(Cl)c1Cl`: the mutagenic call was “no conclusion” under setting [9]; “no conclusion” under setting [10]; “no conclusion” (Species/Cell Type: Mouse, Sex: Female, Assay Type: Spot test, gene mutation, Assay Code: MSTT, Evaluation Type: Evaluation A (Pre-1980)); “active; positive” (Species/Cell Type: Saccharomyces cerevisiae, Assay Type: Forward gene mutation, Assay Code: YEF+, Evaluation Type: Evaluation A (Pre-1980)); “inactive; negative” (Species/Cell Type: Saccharomyces cerevisiae, Assay Type: Mitotic recombination or gene conversion, Assay Code: YEC-, Evaluation Type: Evaluation A (Pre-1980)); “active; positive” (Species/Cell Type: Saccharomyces cerevisiae, Assay Type: Mitotic recombination or gene conversion, Assay Code: YEH+, Evaluation Type: Evaluation A (Pre-1980)).

As to `O=S(=O)(O)CCS`, the mutagenic call reads like this: under setting [9], “no conclusion”; under setting [10], “no conclusion”.

With `CC(C)C[C@@H](N)[C@H](O)C(=O)N[C@H](C(=O)N[C@H](C(=O)N[C@@H](CC(=O)O)C(=O)O)C(C)C)C(C)C`, under setting [10], the mutagenic call is recorded as “no conclusion”.

As for `CC(=O)OCCN(CCOC(C)=O)N=O`, under setting [11], the mutagenic call is “no conclusion”.

In the case of `CN(N=O)C(=O)NC1O[C@H](CO)[C@@H](O)[C@H](O)[C@H]1O` (stereo not given in full), the mutagenic call under setting [2] is “active; positive”.

Regarding `CC1CC(C)CN(N=O)C1` (stereo not given), the mutagenic call was “active; positive” (Species/Cell Type: Drosophila melanogaster, Assay Type: Sex-linked recessive lethal gene mutation, Assay Code: SRL+, Evaluation Type: Evaluation A (Pre-1980)); “active; positive” (Species/Cell Type: Saccharomyces cerevisiae, Assay Type: Forward gene mutation, Assay Code: YEF+*, Activation: With metabolic activation, Evaluation Type: Evaluation A (Pre-1980)); “active; positive” (Species/Cell Type: Saccharomyces cerevisiae, Assay Type: Reverse gene mutation, Assay Code: YER+*, Activation: With metabolic activation, Evaluation Type: Evaluation A (Pre-1980)); “no conclusion” under setting [12].

On to `CCCN1CCN(c2ccc([N+](=O)[O-])c3no[n+]([O-])c23)CC1`, for which the mutagenic call under setting [8] is “active; positive”.

Take `O=Cc1ccco1`: the mutagenic call is, setting by setting: under setting [13], “active; positive”; under setting [14], “active; positive”; under setting [8], “active; positive”.

Take `COCCOC(=O)c1ccccc1C(=O)OCCOC`: the mutagenic call (Species/Cell Type: Rodents, Sex: Male, Assay Type: Dominant lethal test, Assay Code: DLTT, Evaluation Type: Evaluation A (Pre-1980)) is on record as “no conclusion”.

For the compound `O=C(O)CN(CCN(CC(=O)O)CC(=O)O)CC(=O)O`, the mutagenic call is “active; positive” (Species/Cell Type: Allium cepa, Assay Type: Chromosome aberrations, Assay Code: ALC+, Evaluation Type: Evaluation A (Pre-1980)); “inactive; negative” (Species/Cell Type: Arabidopsis species, Assay Type: Gene mutation, Assay Code: ARM-, Evaluation Type: Evaluation A (Pre-1980)); “inactive; negative” (Species/Cell Type: Salmonella typhimurium (one or more of the five standard strains: TA98, TA100, TA1535, TA1537, and TA1538), Assay Type: Histidine reverse gene mutation, Ames assay, Assay Code: SAL-, Evaluation Type: Evaluation A (Pre-1980)). In addition, under “Species/Cell Type: Nonhuman, Assay Code: CCG-, Evaluation Type: Evaluation A (Pre-1980)”, the call is “inactive; negative”.

As to `CC(CN(C)C)CN1c2ccccc2CCc2ccccc21` (stereo not given), the mutagenic call (Species/Cell Type: Human, Sex: Male, Assay Type: Sperm morphology, Assay Code: SPHT, Evaluation Type: Evaluation A (Pre-1980)) was “no conclusion”.

On to `Cn1cc[nH]c1=S`, for which, under setting [11], the mutagenic call is reported as “no conclusion”.

Regarding `O[C@H]1C=Cc2c(cc3ccc4cccc5ccc2c3c45)[C@@H]1O`, the mutagenic call is “active; positive” (Species/Cell Type: Chinese hamster lung (V79) cells, Assay Type: Forward gene mutation at the HPRT or ouabain locus, Assay Code: V79+*, Activation: With metabolic activation, Evaluation Type: Evaluation A (Pre-1980)); “active; positive” (Species/Cell Type: Nonhuman, Assay Type: Sister-chromatid exchange (SCE) in vitro, Assay Code: SC2+D, Dose Response: With dose response, Evaluation Type: Evaluation A (Pre-1980)); “active; positive” under setting [15]; “active; positive” under setting [7]. The call reads like this: under setting [5], “active; positive”; (Species/Cell Type: Nonhuman, Assay Code: CCG+L, Evaluation Type: Evaluation A (Pre-1980)) “active; positive”.

For `COc1ccc(C[C@H](N)C(=O)N[C@H]2[C@@H](O)[C@H](n3cnc4c(N(C)C)ncnc43)O[C@@H]2CO)cc1`, the mutagenic call is “active; positive” under setting [3]; “inactive; negative” (Species/Cell Type: Escherichia coli polA (W3119 vs P3478), Assay Type: Rec-assay, DNA effects (bacterial DNA repair), Assay Code: RE1-, Evaluation Type: Evaluation A (Pre-1980)); “no conclusion” (Species/Cell Type: Glycine max (soybean), Assay Type: Gene mutation, Assay Code: GLMT, Evaluation Type: Evaluation A (Pre-1980)); “inactive; negative” (Species/Cell Type: Rodents, Sex: Male, Assay Type: Dominant lethal test, Assay Code: DLT-, Evaluation Type: Evaluation A (Pre-1980)).

As to `CC(=O)Nc1ccc2c(c1)Cc1cccc(O)c1-2`, the mutagenic call reads like this: under setting [3], “active; positive”; under setting [4], “no conclusion”; under setting [16], “inactive; negative”; under setting [6], “inactive; negative”; under setting [7], “active; positive”.

Regarding `CCOP(=S)(OCC)Oc1ccc([N+](=O)[O-])cc1`, the mutagenic call by setting is: (Species/Cell Type: Allium cepa, Assay Type: Chromosome aberrations, Assay Code: ALC+D, Dose Response: With dose response, Evaluation Type: Evaluation A (Pre-1980)) “active; positive”; (Species/Cell Type: Bacillus subtilis (H17 vs M45), Assay Type: Rec-assay, spot test, DNA effects (bacterial DNA repair), Assay Code: REWT, Evaluation Type: Evaluation A (Pre-1980)) “no conclusion”; under setting [1], “no conclusion”; (Species/Cell Type: Escherichia coli WP2 UVRA, Assay Type: Tryptophan reverse gene mutation, Assay Code: WPU-*, Activation: With metabolic activation, Evaluation Type: Evaluation A (Pre-1980)) “inactive; negative”; under setting [4], “no conclusion”; under setting [16], “inactive; negative”. The mutagenic call reads like this: under setting [13], “active; positive”; under setting [14], “active; positive”; under setting [15], “active; positive”; under setting [6], “inactive; negative”; under setting [12], “no conclusion”.

As to `CC(C(=O)O)c1cccc(C(=O)c2ccccc2)c1` (stereo not given), the mutagenic call (Species/Cell Type: Human lymphocytes, Assay Type: Sister-chromatid exchange (SCE) in vivo, Assay Code: SCY+, Evaluation Type: Evaluation B (Post-1980)) is “active; positive”.

Values taken from PubChem BioAssay AID1259408 (Genetic Toxicology Data Bank (GENE-TOX), 2018).
